Results taken from patent publication US20230002359A1, “PESTICIDALLY ACTIVE FUSED BICYCLIC HETEROAROMATIC COMPOUNDS” (priority 2019, published 2023).

Experiments:
Assay type in all cases: in vivo
[1] = test system: Plutella xylostella (Diamondback Moth); assay: Example B9: Plutella xylostella (diamondback moth), artificial diet, eggs, 96-well; conditions: 216 h, application rate of 500 ppm, 9 days after infestation, read-out: control in mortality
Protocol: 96-well microtiter plates containing artificial diet were treated with aqueous test solutions, prepared from 10′000 ppm DMSO stock solutions, by a liquid handling robot. After drying, eggs (˜30 per well) were infested onto a netted lid which was suspended above the diet. The eggs hatch and L1 larvae move down to the diet. The samples were assessed for mortality 9 days after infestation.

[2] = test system: Spodoptera littoralis (Egyptian Cotton Leaf Worm); assay: Example B8: Spodoptera littoralis (Egyptian cotton leaf worm), uptake by lettuce roots from agar, eggs; conditions: 144 h, test rate of 12.5 ppm, 6 days after infestation, compound absorbed by lettuce roots, read-out: control in at least one of the three categories (mortality, anti-feeding, or growth inhibition)
Text: Test compounds were applied by pipette from 10′000 ppm DMSO stock solutions into 24-well plates and mixed with agar. Lettuce seeds were placed onto the agar and the multi well plate was closed by another plate which contained also agar. After 7 days the compound was absorbed by the roots and the lettuce grew into the lid plate. The lettuce leaves were then cut off into the lid plate. Spodoptera eggs were pipetted through a plastic stencil onto a humid gel blotting paper and the lid plate was closed with it. The samples were assessed for mortality, anti-feedant effect and growth inhibition in comparison to untreated samples 6 days after infestation.
The following compounds gave an effect of at least 80% control in at least one of the three categories (mortality, anti-feeding, or growth inhibition) at a test rate of 12.5 ppm: P.58, P.93, P.94, P.95, P.130, P.254, P.256.

[3] = test system: Euschistus heros (Neotropical Brown Stink Bug); assay: Example B2: Euschistus heros (neotropical brown stink bug), soybean leaves sprayed, N2 nymphs; conditions: 120 h, application rate of 200 ppm, 5 days after infestation, N2 nymphs, read-out: control in at least one of the two categories (mortality or growth inhibition)
Protocol: Soybean leaves on agar in 24-well microtiter plates were sprayed with aqueous test solutions prepared from 10′000 ppm DMSO stock solutions. After drying the leaves were infested with N2 nymphs. The samples were assessed for mortality and growth inhibition in comparison to untreated samples 5 days after infestation.

[4] = test system: Plutella xylostella (Diamond Back Moth); assay: Example B4: Plutella xylostella (diamond back moth), artificial diet, eggs, 24-well; conditions: 192 h, application rate of 200 ppm, 8 days after infestation, eggs, read-out: control in at least one of the two categories (mortality or growth inhibition)
Protocol: 24-well microtiter plates with artificial diet were treated with aqueous test solutions prepared from 10′000 ppm DMSO stock solutions by pipetting. After drying, Plutella eggs were pipetted through a plastic stencil onto a gel blotting paper and the plate was closed with it. The samples were assessed for mortality and growth inhibition in comparison to untreated samples 8 days after infestation.

[5] = test system: Myzus persicae (Green Peach Aphid); assay: Example B5: Myzus persicae (green peach aphid) feeding/contact activity, sunflower leaf discs; conditions: foliar, 144 h, application rate of 200 ppm, 6 days after infestation
Protocol: Sunflower leaf discs were placed onto agar in a 24-well microtiter plate and sprayed with aqueous test solutions prepared from 10′000 ppm DMSO stock solutions. After drying, the leaf discs were infested with an aphid population of mixed ages. The samples were assessed for mortality 6 days after infestation.

[6] = test system: Spodoptera littoralis (Egyptian Cotton Leaf Worm); assay: Example B7: Spodoptera littoralis (Egyptian cotton leaf worm), cotton leaf discs sprayed, L1 larvae; conditions: foliar, 72 h, application rate of 200 ppm, 3 days after infestation, L1 larvae, read-out: control in at least one of the three categories (mortality, anti-feedant effect, or growth inhibition)
Outline: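 Cotton leaf discs on agar were sprayed with aqueous test solutions made from 10′000 ppm DMSO stocks, dried, then infested with five L1 larvae. Mortality, anti-feeding effect and growth inhibition were scored against untreated discs 3 days after infestation; control means any category exceeds untreated.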

[7] = test system: Diabrotica Balteata (Corn Root Worm); assay: Example B1: Diabrotica balteata (corn root worm), maize sprouts sprayed, L2 larvae; conditions: 96 h, application rate of 200 ppm, 4 days after infestation, L2 larvae, read-out: control in at least one of the two categories (mortality or growth inhibition)
Outline: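 Spray test: maize sprouts on agar, aqueous dilutions of 10′000 ppm DMSO stock; after drying, 6–10 L2 larvae/well. Read-out at 4 d post-infestation: mortality and growth inhibition vs untreated.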

[8] = test system: Myzus persicae (Green Peach Aphid); assay: Example B6: Myzus persicae (green peach aphid) intrinsic activity, sucrose solution; conditions: 120 h, test rate of 12 ppm, 5 days after infestation, intrinsic activity, read-out: mortality
Outline: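 Mortality was read 5 days after infestation. Aphids on pea seedlings fed through a stretched Parafilm membrane on inverted 24-well plates containing sucrose solution mixed with test compound, which was diluted from 10′000 ppm DMSO stock.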

[9] = test system: Chilo suppressalis (Striped Rice Stemborer); assay: Example B3: Chilo suppressalis (striped rice stemborer), artificial diet, L2 larvae; conditions: 144 h, application rate of 200 ppm, 6 days after infestation, L2 larvae, read-out: control in at least one of the three categories (mortality, anti-feedant effect, or growth inhibition)
Outline: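 First, artificial diet was treated with aqueous solutions prepared from 10'000 ppm DMSO stocks; second, after drying, L2 larvae (6-8/well) were added; third, effects were assessed at 6 days against untreated controls, counting control when any of three categories was higher.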

C[C@H](Nc1ncnc2c(I)cc(C(F)(F)F)cc12)c1ncnn1-c1ncccn1 [P.95, 8-iodo-N-[(1S)-1-(2-pyrimidin-2-yl-1,2,4-triazol-3-yl)ethyl]-6-(trifluoromethyl)quinazolin-4-amine]
≥ 80%: mortality at 500 ppm [1] | percent control (mortality, anti-feeding or growth inhibition) at 12.5 ppm [2] | percent control (mortality or growth inhibition) at 200 ppm [3] | percent control (mortality or growth inhibition) at 200 ppm [4] | mortality at 200 ppm [5] | percent control (mortality, anti-feedant effect or growth inhibition) at 200 ppm [6] | percent control (mortality or growth inhibition) at 200 ppm [7] | mortality at 12 ppm [8] | percent control (mortality, anti-feedant effect or growth inhibition) at 200 ppm [9]

C[C@H](Nc1ncnc2c(OC(F)F)cc(Cl)cc12)c1ncnn1-c1ncccn1 [P.93, 6-chloro-8-(difluoromethoxy)-N-[(1S)-1-(2-pyrimidin-2-yl-1,2,4-triazol-3-yl)ethyl]quinazolin-4-amine]
≥ 80%: mortality at 500 ppm [1] | percent control (mortality, anti-feeding or growth inhibition) at 12.5 ppm [2] | percent control (mortality or growth inhibition) at 200 ppm [3] | percent control (mortality or growth inhibition) at 200 ppm [4] | percent control (mortality, anti-feedant effect or growth inhibition) at 200 ppm [6] | percent control (mortality or growth inhibition) at 200 ppm [7] | mortality at 12 ppm [8] | percent control (mortality, anti-feedant effect or growth inhibition) at 200 ppm [9]

CC(c1ncnn1-c1ncccn1)N(C)c1ncnc2c(C(F)(F)F)cc(C(F)(F)F)cc12 (stereo not drawn) [P.58, N-methyl-N-[1-(2-pyrimidin-2-yl-1,2,4-triazol-3-yl)ethyl]-6,8-bis(trifluoromethyl)quina-zolin-4-amine]
≥ 80%: mortality at 500 ppm [1] | percent control (mortality, anti-feeding or growth inhibition) at 12.5 ppm [2]

C[C@H](Nc1ncnc2c(Cl)cc(OC(F)F)cc12)c1ncnn1-c1ncccn1 [P.94, 8-chloro-6-(difluoromethoxy)-N-[(1S)-1-(2-pyrimidin-2-yl-1,2,4-triazol-3-yl)ethyl]quinazolin-4-amine]
≥ 80%: mortality at 500 ppm [1] | percent control (mortality, anti-feeding or growth inhibition) at 12.5 ppm [2] | percent control (mortality or growth inhibition) at 200 ppm [4] | mortality at 200 ppm [5] | percent control (mortality or growth inhibition) at 200 ppm [7] | mortality at 12 ppm [8] | percent control (mortality, anti-feedant effect or growth inhibition) at 200 ppm [9]

CC(Nc1ncnc2c(C(F)(F)F)cc(Cl)cc12)c1nccnc1-c1ncccn1 (stereo not drawn) [P.130, 6-chloro-N-[1-(3-pyrimidin-2-ylpyrazin-2-yl)ethyl]-8-(trifluoromethyl)quinazolin-4-amine]
≥ 80%: percent control (mortality, anti-feeding or growth inhibition) at 12.5 ppm [2] | percent control (mortality or growth inhibition) at 200 ppm [4] | mortality at 200 ppm [5] | percent control (mortality, anti-feedant effect or growth inhibition) at 200 ppm [6] | percent control (mortality or growth inhibition) at 200 ppm [7] | mortality at 12 ppm [8] | percent control (mortality, anti-feedant effect or growth inhibition) at 200 ppm [9]
